Laboratory results taken from patent US20240294499A1, “TARGETED PROTEIN DEGRADATION USING BIFUNCTIONAL COMPOUNDS THAT BIND UBIQUITIN LIGASE AND TARGET MCL-1 PROTEIN” (Captor Therapeutics S.A., priority 2021, published 2024).

Key:
iCELL Cardiomyocytes = experiment: Cardiac safety: caspase 3 and 7 activation (Caspase-Glo 3/7) in iCELL Cardiomyocytes; type: cell-based; settings: for Fold change at 1.2 uM (caspase 3/7 activity in cardiomyocytes): 24 hours incubation, vs DMSO; for activity in caspase activity assay in cardiomyocytes: as opposed to reference compound AZD5991
Excerpt: The effect of various compounds of the invention and a reference compound AZD5991 on cardiac safety was investigated by the evaluation of caspase 3 and 7 activation using Caspase-Glo 3/7 Assay (Promega; G8092) in iCELL™ Cardiomyocytes from FUJIFILM Cellular Dynamics (Catalog number: 11713). In the Caspase-Glo® 3/7 Assay, the luminescence (measured as Relative Luciferase Units, RLU) is proportional to the amount of caspase activity present in each sample.
The assay is initiated by thawing and seeding iCell® Cardiomyocytes as specified in the User Guide. After 48 hours, the cells are washed to remove unattached cells and debris and immediately treated with compounds or DMSO diluted in the maintenance medium (FCDI; cat: M1003). Compound concentrations used in this assay: 7 points 1/3 dilution curve starting at 100 uM. After 24 hours of incubation with compounds, caspase activity is measured by the addition of the Caspase-Glo® 3/7 Reagent followed by the luminescence measurement.
The analysis of the results is performed by calculation of the fold change in caspase 3/7 activity at a given compound concentration. Fold change is calculated with the formula: […]
where: • RLU Xi is the Relative Luciferase Units of sample I; • RLU BG is the Background Relative Luciferase Units; • RLU C is the Relative Luciferase Units of Control (DMSO).
The experiments were performed in technical duplicates.

[1] = test system: hiPSC-CM (iCELL Cardiomyocytes); experiment: Cardiac safety: hiPSC-CM cell viability assay (CTG); type: cell-based, human; settings: viability, CTG assay, treatment until day 14
Excerpt: The effect of various compounds of the invention and a reference compounds AZD5991 and MIK665 on cardiac safety was investigated by the evaluation of viability with CTG assay (Promega; cat #G7572) in iCELL™ Cardiomyocytes from FUJIFILM Cellular Dynamics (Catalog number: 11713).
Cells were thawed, counted using an automated cell counter (TC20, Bio-Rad) and seeded in 96 well plates (Greiner-BioOne; 655098) previously coated with 0.1% gelatin (Sigma-Aldrich; G1890) using Plating Medium (#M1001) following the instructions of the iCELL cardiomyocytes User Guide. Forty ml of Plating Medium was used to equally distribute the cells in four 96 well plates. Cells were then placed in the incubator at 37° C., 5% CO2 and left undisturbed for 48 hours. Compounds were serially diluted in DMSO and then further diluted to final assay concentration using maintenance medium (#M1003). Final DMSO concentration was 0.5%. Forty eight hours after plating, non-adherent cells and debris were washed as described in the User Guide. Plating medium was then replaced with maintenance medium containing diluted compounds or DMSO (as control). Medium was then changed every 2 days with fresh medium containing compounds or DMSO until the end of the treatment. On day 14, only medium without compounds was used immediately before the CTG assay. Luminescence signal was measured using a CLARIOstar Plus Multi-Mode Microplate Reader (574-590 nm).

[2] = test system: iPSC-derived cardiomyocytes (iPSC-CMs); experiment: caspase 3/7 activity in iPSC-derived cardiomyocytes; type: cell-based; settings: 100 μM, FIG. 5
[3] = biological target: [MCL-1]-[compound of formula (I)]-[CRBN/DDB1] complex (Homo sapiens, UniProt Q07820+Q96SW2); experiment: AlphaLISA dose response ternary complex formation assay; type: binding; settings: read-out: AlphaLISA dose response Average pEC50 by molecule (converted)
Summary of the method: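 EC50 comes from dose–response of AlphaLISA luminescence (excitation 680, emission 615 nm), normalised between DMSO background and an internal positive control, with concentrations past the hook point dropped. Ternary complex formed by mixing bead-bound biotin-hMCL-1 and His-CRBN/DDB1 (protein solutions 40 and 200 nM) with compound in 2% DMSO, 30 min, 25 °C.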

OPM-2 cells = experiment: Cell viability assay (CellTiter-Glo), OPM-2; type: cell-based; settings: Homo sapiens, 24 hours incubation, 1% FBS, read-out: Average pIC50 by molecule OPM-2 (converted)
Excerpt: The effect of various compounds of the invention on the viability of OPM-2, MV-4-11 and ARH-77 cell lines was investigated, using the CTG protocol described below.
OPM-2 and MV-4-11 cell lines are derived from multiple myeloma and acute myeloid leukaemia, respectively. Both cell lines are described in the literature as MCL-1 dependent lines, as opposed to lymphoblast-like ARH-77 cell line, which is described as independent of MCL-1 (Tron A E et al. Nat Commun. 2018; 9: 5341; Caenepeel S et al. Cancer Discov. 2018 December; 8(12):1582-1597).
Cells (OPM-2, MV-4-11 or ARH-77) were seeded on […] in a growth medium with FBS reduced to 1%. Next, compound stocks were pre-diluted in DMSO and added directly to the cells growth medium (final DMSO concentration: 0.5%). Compound concentrations used in this assay: 1/3 dilutions starting at 30 uM (9 to 12 points).
After 24 hours of incubation, cell viability was evaluated using CellTiter-Glo Luminescent Cell Viability Assay (Promega, cat #G7572). Luminescence signal was measured using a CLARIOstar Plus Multi-Mode Microplate Reader (574-590 nm).
Results were normalized to DMSO control.

MV-4-11 cells = experiment: Cell viability assay (CellTiter-Glo), MV-4-11; type: cell-based; settings: Homo sapiens, MV4-11, 24 hours incubation, 1% FBS, read-out: Average pIC50 by molecule MV-4-11 (converted)
Summary of the method: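 OPM-2, MV-4-11 and ARH-77 cells were grown in medium with 1% FBS and treated with compound in 1/3 dilutions from 30 uM (9–12 points, 0.5% DMSO). Viability was read by CellTiter-Glo luminescence after 24 hours and normalized to DMSO control.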

MCL-1 protein [4] = biological target: T1, MCL-1 protein (Homo sapiens, UniProt Q07820); experiment: OPM-2 cells: MCL-1 protein degradation, Western blot; type: cell-based; design: endogenous in cells; host or cells: OPM-2; settings: OPM-2 cell line, 6 h treatment, 100 nM compound, vs DMSO
Excerpt: The effect of various compounds of the invention and the reference compounds on MCL-1 protein degradation in the OPM-2 cell line was investigated, using the degradation assay protocol below.
OPM-2 cells were maintained in RPMI-1640 medium, supplemented with penicillin/streptomycin and 10% Fetal Bovine Serum (FBS). During the treatment, FBS concentration was reduced to 1%.
Compound stocks were pre-diluted in DMSO and added directly to the cells growth medium (final DMSO concentration: 0.5%).
OPM-2 cells were collected, centrifuged (250 rcf, 5 min), resuspended in a growth medium containing 1% FBS and counted. The cell suspension was then adjusted to 1×10^6 cell/ml using a growth medium containing 1% FBS. Afterwards, 0.5×10^6 cells were seeded on 24-well plates in 0.5 mL of medium per well. Immediately after seeding cells, compounds in appropriate concentrations were added to the cell culture medium.
Following the treatment with the compounds, cells were collected from the plates and suspended in a lysis buffer (2% SDS, 50 mM Tris, pH 8.0, 100 U/ml Pierce Universal Nuclease for Cell Lysis, complete EDTA-free Protease Inhibitor Cocktail) and incubated on ice for 45 min. The amount of protein was determined via BCA assay, and the equal quantity of each sample was loaded on the precast gel for the protein separation. Following the electrophoresis and transfer to the membrane, the membrane was stained with Ponceau (0.1% (w/v) Ponceau in 5% acetic acid). After total protein detection, the stain was washed out using TBST. After the antibody staining for MCL-1 and α-tubulin, the membranes were washed and signals developed.
Densitometric values for MCL-1 were normalized to total protein level (the Ponceau Staining). [%] of protein reduction is calculated in comparison to the cells treated with DMSO, which stand for 0%.
The results for the 6 h treatment with 100 nM compounds are shown in Table 9, using the following labels: • <30% for 0-29% of MCL-1 protein reduction, • ≥30% for 30-49% of MCL-1 protein reduction, • ≥50% for 50-100% of MCL-1 protein reduction.

MCL-1 protein [5] = biological target: T1, MCL-1 protein; experiment: OPM-2 cells: MCL-1 protein degradation, Simple Western; type: cell-based; design: endogenous in cells; host or cells: OPM-2; settings: OPM-2 cell line, 6 h treatment, 100 nM compound, vs DMSO
Summary of the method: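 OPM-2 cells in RPMI-1640 with 1% FBS treated with compounds (0.5% DMSO) for 6 h at 100 nM. Lysates analysed by automated capillary Simple Western with MCL-1 D35A5 antibody; % MCL-1 reduction versus DMSO-treated cells (0%).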

Sequence of [MCL-1]-[compound of formula (I)]-[CRBN/DDB1] complex (Q07820 whole entry): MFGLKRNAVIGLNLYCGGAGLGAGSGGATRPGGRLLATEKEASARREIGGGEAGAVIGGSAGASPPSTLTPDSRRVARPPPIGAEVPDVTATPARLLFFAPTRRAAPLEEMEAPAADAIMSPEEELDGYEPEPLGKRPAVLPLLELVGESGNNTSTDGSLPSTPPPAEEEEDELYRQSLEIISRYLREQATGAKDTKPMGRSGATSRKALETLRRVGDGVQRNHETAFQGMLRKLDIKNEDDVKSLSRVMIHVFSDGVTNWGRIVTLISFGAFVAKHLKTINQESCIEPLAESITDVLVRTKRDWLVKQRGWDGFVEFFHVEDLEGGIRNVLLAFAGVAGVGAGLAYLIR
Sequence of [MCL-1]-[compound of formula (I)]-[CRBN/DDB1] complex (Q96SW2 whole entry): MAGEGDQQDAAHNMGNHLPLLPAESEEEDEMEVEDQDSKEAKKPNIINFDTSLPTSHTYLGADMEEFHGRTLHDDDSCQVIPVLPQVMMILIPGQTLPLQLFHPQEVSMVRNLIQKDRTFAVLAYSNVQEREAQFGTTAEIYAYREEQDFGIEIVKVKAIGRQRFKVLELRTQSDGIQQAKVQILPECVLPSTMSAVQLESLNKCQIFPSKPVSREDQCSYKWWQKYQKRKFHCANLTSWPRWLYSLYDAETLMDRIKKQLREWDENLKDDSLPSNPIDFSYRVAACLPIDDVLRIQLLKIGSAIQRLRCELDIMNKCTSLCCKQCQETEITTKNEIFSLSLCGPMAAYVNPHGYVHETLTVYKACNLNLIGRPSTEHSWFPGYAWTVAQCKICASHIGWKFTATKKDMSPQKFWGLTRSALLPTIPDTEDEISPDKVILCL
Sequence of [MCL-1]-[compound of formula (I)]-[CRBN/DDB1] complex (Q16531 whole entry partner): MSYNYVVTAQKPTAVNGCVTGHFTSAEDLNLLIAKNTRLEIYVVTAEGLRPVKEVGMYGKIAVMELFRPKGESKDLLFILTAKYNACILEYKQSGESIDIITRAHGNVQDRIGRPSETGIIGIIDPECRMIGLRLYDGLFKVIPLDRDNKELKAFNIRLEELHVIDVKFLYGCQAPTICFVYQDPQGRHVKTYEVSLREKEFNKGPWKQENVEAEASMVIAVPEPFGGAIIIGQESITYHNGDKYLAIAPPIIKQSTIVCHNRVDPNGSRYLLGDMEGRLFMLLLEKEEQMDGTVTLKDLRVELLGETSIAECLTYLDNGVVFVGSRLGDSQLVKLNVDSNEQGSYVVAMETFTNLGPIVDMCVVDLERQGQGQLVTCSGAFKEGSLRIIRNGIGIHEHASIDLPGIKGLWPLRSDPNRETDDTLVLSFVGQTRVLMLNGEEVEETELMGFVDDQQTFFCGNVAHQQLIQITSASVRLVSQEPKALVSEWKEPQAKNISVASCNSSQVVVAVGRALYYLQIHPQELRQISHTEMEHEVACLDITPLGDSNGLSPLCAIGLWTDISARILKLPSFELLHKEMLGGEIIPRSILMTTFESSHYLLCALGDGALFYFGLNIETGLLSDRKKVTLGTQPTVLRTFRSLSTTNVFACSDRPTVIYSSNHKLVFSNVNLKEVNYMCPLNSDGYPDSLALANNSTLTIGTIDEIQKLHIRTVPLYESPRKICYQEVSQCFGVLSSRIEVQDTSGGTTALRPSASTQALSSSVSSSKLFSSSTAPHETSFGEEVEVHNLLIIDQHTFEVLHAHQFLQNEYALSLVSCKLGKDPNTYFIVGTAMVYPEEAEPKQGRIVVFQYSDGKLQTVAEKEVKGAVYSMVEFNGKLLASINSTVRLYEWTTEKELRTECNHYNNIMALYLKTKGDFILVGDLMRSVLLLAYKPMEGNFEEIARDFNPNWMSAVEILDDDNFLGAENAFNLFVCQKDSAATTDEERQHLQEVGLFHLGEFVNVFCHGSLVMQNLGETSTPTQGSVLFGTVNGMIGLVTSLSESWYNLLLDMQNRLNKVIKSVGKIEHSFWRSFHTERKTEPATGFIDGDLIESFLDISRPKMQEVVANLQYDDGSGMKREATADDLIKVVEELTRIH
T1 sequence (Q07820 whole entry): as the sequence (Q07820 whole entry) above

EC50 [3] [nM] | IC50 (MV-4-11 cells) [nM] | Western blot, % of protein reduction (MCL-1 protein [4]) [%] | Simple Western, % of protein reduction (MCL-1 protein [5]) [%] | Compound | Fold change at 1.2 uM (caspase 3/7 activity in cardiomyocytes) (iCELL Cardiomyocytes) | IC50 ([1]; Homo sapiens, Cardiomyocyte, 336 h, read-out: Average pIC50 by molecule hiPSC-CM (converted)) [nM] | cell death in iPSC-CMs (caspase 3/7 assay, concentration point not displayed) [2] | IC50 (OPM-2 cells) [nM] | activity in caspase activity assay in cardiomyocytes (iCELL Cardiomyocytes) | Average pIC50 by molecule hiPSC-CM [1]
– | – | – | – | Cc1c2c(nn1C)CSCc1cc(n(C)n1)CSc1cc(c3ccccc3c1)OCCCc1c(C(=O)O)n(C)c3c-2c(Cl)ccc13 [AZD5991, reference compound] | 2.9 ± 0.5 | 631 | – | – | – | –
– | – | – | – | Cc1c2c(nn1C)CSCc1cc(n(C)n1)CSc1cc(c3ccccc3c1)OCCCc1c(C(=O)O)n(C)c3c-2c(Cl)ccc13 [AZD-5991] | – | – | excessive cell death | – | – | –
< 100 | ≤ 100 | ≥50 | ≥20 | Cc1cc(OCCCc2c(C(=O)O)n(CCN3CCN(C(=O)COc4cccc5c4C(=O)N(C4CCC(=O)NC4=O)C5=O)CC3)c3c(-c4c(C)nn(C)c4C)c(Cl)ccc23)cc(C)c1Cl (stereo not shown) [Compound 201, 6-chloro-3-(3-(4-chloro-3,5-dimethylphenoxy)propyl)-1-(2-(4-(2-((2-(2,6-dioxopiperidin-3-yl)-1,3-dioxoisoindolin-4-yl)oxy)acetyl)piperazin-1-yl)ethyl)-7-(1,3,5-trimethyl-1H-pyrazol-4-yl)-1H-indole-2-carboxylic acid] | – | – | – | ≤ 1000 | – | –
< 100 | ≤ 100 | ≥50 | ≥40 | Cc1nn(C)c(C)c1-c1c(Cl)ccc2c(CCCOc3cccc4ccccc34)c(C(=O)O)n(CCN3CCN(C(=O)COc4cccc5c4CN(C4CCC(=O)NC4=O)C5=O)CC3)c12 (stereo not shown) [Compound 206, 6-chloro-1-(2-(4-(2-((2-(2,6-dioxopiperidin-3-yl)-1-oxoisoindolin-4-yl)oxy)acetyl)piperazin-1-yl)ethyl)-3-(3-(naphthalen-1-yloxy)propyl)-7-(1,3,5-trimethyl-1H-pyrazol-4-yl)-1H-indole-2-carboxylic acid] | ≤1.5 ± 0.2 | – | – | ≤ 316 | little to no activity | –
< 10 | ≤ 100 | ≥50 | ≥40 | Cc1nn(C)c(C)c1-c1c(Cl)ccc2c(CCCOc3cccc4cc(F)ccc34)c(C(=O)O)n(CCN3CCN(C(=O)COc4cccc5c4C(=O)N(C4CCC(=O)NC4=O)C5=O)CC3)c12 (stereo not shown) [Compound 214, 6-chloro-1-{2-[4-(2-{(2-(2,6-dioxopiperidin-3-yl)-1,3-dioxo-2,3-dihydro-1H-isoindol-4-yl]oxy}acetyl)piperazin-1-yl]ethyl}-3-{3-[(6-fluoronaphthalen-1-yl)oxy]propyl}-7-(1,3,5-trimethyl-1H-pyrazol-4-yl)-1H-indole-2-carboxylic acid] | ≤1.5 ± 0.2 | – | – | ≤ 316 | little to no activity | –
< 100 | ≤ 316 | ≥50 | ≥40 | Cc1nc2c(C(=O)NC3CCC(=O)NC3=O)cc(OCC(=O)N3CCN(CCn4c(C(=O)O)c(CCCOc5cccc6ccccc56)c5ccc(Cl)c(-c6c(C)nn(C)c6C)c54)CC3)cc2[nH]1 (stereo not shown) [Compound 263, 6-chloro-1-(2-{4-[2-({4-[(2,6-dioxopiperidin-3-yl)carbamoyl]-2-methyl-1H-1,3-benzodiazol-6-yl}oxy)acetyl]piperazin-1-yl}ethyl)-3-[3-(naphthalen-1-yloxy)propyl]-7-(1,3,5-trimethyl-1H-pyrazol-4-yl)-1H-indole-2-carboxylic acid] | – | – | – | ≤ 1000 | – | –
< 100 | ≤ 100 | – | ≥40 | Cc1nn(C)c(C)c1-c1c(Cl)ccc2c(CCCOc3cccc4ccccc34)c(C(=O)O)n(CCN3CCN(C(=O)Cn4c(C)nc5c(C(=O)NC6CCC(=O)NC6=O)cccc54)CC3)c12 (stereo not shown) [Compound 266, 6-chloro-1-{2-[4-(2-{4-[(2,6-dioxopiperidin-3-yl)carbamoyl]-2-methyl-1H-1,3-benzodiazol-1-yl}acetyl)piperazin-1-yl]ethyl}-3-[3-(naphthalen-1-yloxy)propyl]-7-(1,3,5-trimethyl-1H-pyrazol-4-yl)-1H-indole-2-carboxylic acid] | ≤1.5 ± 0.2 | – | – | ≤ 316 | little to no activity | –
– | – | – | – | MIK665 [reference compound] | – | – | – | – | – | 6.9
